Laboratory results published in patent US7576085B2, “Imidazopyrazines as cyclin dependent kinase inhibitors” (Schering Corporation, priority 2002, dated 2009).

Legend:
[1] = biological target: T1, CDK2 (cyclin A or cyclin E) (Homo sapiens, UniProt P24941); test: CDK2 in vitro kinase assay (cyclin A or cyclin E dependent), SPA with biotinylated Histone H1 peptide; assay type: biochemical; details: for IC50: CDK2 with cyclin A or cyclin E, 33P-ATP SPA, 1 hour at room temperature; for inhibition at 0.05 µg/mL: compound at 0.05 ug/mL, read-out: % INH @ 0.05 ug/mL; for inhibition at 0.5 µg/mL: compound at 0.5 ug/mL, read-out: % INH @ 0.5 ug/mL
T1 construct: The expressed protein was approximately 34 kDa in size; made in house; host or cells: SF9 insect cells (recombinant baculovirus, pFASTBAC)

## Brc1cnc2c(NCCc3ccncc3)nc(-c3ccccc3)cn12
other
  melting point: 177 to 179 °C

## Brc1cnc2c(NCCc3cccnc3)nc(-c3ccccc3)cn12
other
  melting point: 120 to 122 °C

## Brc1cnc2c(NC3CCCCC3)nc(-c3ccccc3)cn12
other
  melting point: 145 to 146 °C

## Ic1cnc2c(NCc3cccnc3)nc(-c3ccccc3)cn12
other
  melting point: 204 to 206 °C

## Ic1cnc2c(NCc3ccncc3)nc(-c3ccccc3)cn12
other
  melting point: 139 to 141 °C

## O=C(c1cccc(C(F)(F)F)c1)N1CCC(Nc2nc(-c3ccccc3Cl)cn3c(Br)cnc23)CC1
other
  melting point: 175 to 177 °C

## Clc1ccccc1-c1cn2c(I)cnc2c(NCc2ccncc2)n1
other
  melting point: 162 to 164 °C

## Clc1ccccc1-c1cn2c(Cl)cnc2c(NCc2cccnc2)n1
other
  melting point: 127 to 129 °C

## Brc1cnc2c(Nc3ccccc3)nc(-c3ccccc3)cn12
other
  melting point: 169 to 170 °C

## Cc1cnc2c(NCc3ccccc3)nccn12
other
  melting point: 152 to 154 °C

## Cc1cnc2c(NCCc3ccncc3)nccn12
other
  melting point: 130 to 132 °C

## COCCNc1nccn2c(C)cnc12
other
  melting point: 104 to 105 °C

## Cc1cnc2c(Nc3ccccc3)nccn12
other
  melting point: 182 to 184 °C

## Cc1cnc2c(NCc3ccncc3)nccn12
other
  melting point: 183 to 185 °C

## Cc1cnc2c(NC(c3ccccc3)c3ccccc3)nccn12
other
  melting point: 186 to 188 °C

## Cc1cnc2c(NCc3cccnc3)nccn12
other
  melting point: 143 to 145 °C

## Clc1ccccc1-c1cn2c(Br)cnc2c(NCc2ccncc2)n1
[1]
  IC50: 490 nM

## Clc1ccccc1-c1cn2c(Br)cnc2c(NCc2cccnc2)n1
[1]
  IC50: 240 nM
  inhibition at 0.05 µg/mL: 47.4%
  inhibition at 0.5 µg/mL: 88.6%

## Clc1ccccc1-c1cn2c(I)cnc2c(NCc2cccnc2)n1
[1]
  IC50: 230 nM

## c1ccc(-c2cn3c(-c4ccccc4)cnc3c(NCc3cccnc3)n2)cc1
[1]
  IC50: 6700 nM

## FC(F)(F)c1ccc(CNc2nc(-c3ccccc3)cn3c(Br)cnc23)cn1
[1]
  IC50: 4550 nM

## CC(=O)c1cnc2c(NCc3cccnc3)nc(-c3ccccc3)cn12
[1]
  IC50: 4700 nM

## CC(CO)Nc1nc(-c2ccccc2Cl)cn2c(Br)cnc12 (stereo not shown)
[1]
  IC50: 200 nM
  inhibition at 0.05 µg/mL: 63%
  inhibition at 0.5 µg/mL: 92.7%

## COCCCNc1nc(-c2ccccc2Cl)cn2c(Br)cnc12
[1]
  inhibition at 0.05 µg/mL: 30.7%
  inhibition at 0.5 µg/mL: 71.5%

## Clc1ccccc1-c1cn2c(Br)cnc2c(NCCCn2cccc2)n1
[1]
  inhibition at 0.05 µg/mL: 42.2%
  inhibition at 0.5 µg/mL: 48.8%

## Clc1ccccc1-c1cn2c(Br)cnc2c(NCCCn2ccnc2)n1
[1]
  inhibition at 0.05 µg/mL: 37.5%
  inhibition at 0.5 µg/mL: 29.4%

## O=C1CCCN1CCCNc1nc(-c2ccccc2Cl)cn2c(Br)cnc12
[1]
  inhibition at 0.05 µg/mL: 30.7%
  inhibition at 0.5 µg/mL: 67.8%

## Cc1cnc2c(Nc3ccccc3)nccn12 [drawing 711]
[1]
  IC50: 15000 nM

## Cc1cnc2c(NCc3ccncc3)nccn12 [drawing 712]
[1]
  IC50: 22500 nM

## Brc1cnc2c(NCCc3cccnc3)nc(-c3ccccc3)cn12 [drawing 713]
[1]
  IC50: 4180 nM

## Ic1cnc2c(NCc3ccncc3)nc(-c3ccccc3)cn12 [drawing 714]
[1]
  IC50: 530 nM

## Clc1ccccc1-c1cn2c(Cl)cnc2c(NCc2cccnc2)n1 [drawing 718]
[1]
  IC50: 430 nM
